Biological target: T1, EHEP (Eisenia hydrolysis enhancing protein, 25 kDa) (Aplysia kurodai, UniProt A0A1B4XTR1)
T1 construct: native protein purified from digestive fluid; signal peptide 1-16 predicted to be removed; 25 kDa monomer
T1 sequence (A0A1B4XTR1 17-229): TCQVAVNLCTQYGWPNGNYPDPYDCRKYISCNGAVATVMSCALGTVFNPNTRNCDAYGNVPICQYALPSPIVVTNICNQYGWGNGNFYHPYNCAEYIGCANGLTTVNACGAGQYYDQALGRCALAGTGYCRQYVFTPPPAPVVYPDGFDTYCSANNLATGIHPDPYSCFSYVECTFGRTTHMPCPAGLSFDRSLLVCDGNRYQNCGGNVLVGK
Assay: co-precipitation, SDS-PAGE of precipitate
Format: binding
Conditions: 50 and 100 μg in 0.1 ml; 50 mM acetate pH 5.5, 0.1 M NaCl, 10 mM CaCl2; 25 °C, 90 min

SMILES | co-precipitation, SDS-PAGE of precipitate
Oc1cc(O)cc(O)c1 [phloroglucinol, 1,3,5-trihydroxybenzene] | EHEP was precipitated by phloroglucinol and gallic acid
O=C(O)c1cc(O)c(O)c(O)c1 [gallic acid] | EHEP was precipitated by phloroglucinol and gallic acid

Source: article PMC5271319, “Identification and Characterization of a 25 kDa Protein That Is Indispensable for the Efficient Saccharification of Eisenia bicyclis in the Digestive Fluid of Aplysia kurodai” (PLoS ONE, 2017)
